Measurements as given in the supplement of paper PMC13380429.

How the values were obtained:
[1] = system: A549-ACE2 infected with SARS-CoV-2; assay: cell count relative to DMSO; higher = less toxic; conditions: 24 h
Caco-2 [2] = assay: cell viability relative to DMSO; higher = less toxic; conditions: 72 h
Calu-3 [3] = assay: as above; conditions: 72 h
HepG2 [4] = assay: as above; conditions: 72 h
U2OS [5] = assay: as above; conditions: 72 h
Vero E6 [6] = assay: as above; conditions: 72 h
[7] = system: A549-ACE2 infected with SARS-CoV-2; assay: SARS-CoV-2 infection rate relative to DMSO; higher = more infection; conditions: 24 h
A549-ACE2 = assay: drug-induced phospholipidosis relative to tamoxifen; higher = more phospholipidosis
[8] = system: A549-ACE2 infected with SARS-CoV-2; assay: morphology score (similarity to uninfected cells); higher = more like uninfected cells; conditions: 24 h
Caco-2 [9] = assay: relative viability EC50 (midpoint between 100% and the lowest measured viability); higher = less toxic; conditions: 72 h
Calu-3 [10] = assay: as above; conditions: 72 h
HepG2 [11] = assay: as above; conditions: 72 h
U2OS [12] = assay: as above; conditions: 72 h
Vero E6 [13] = assay: as above; conditions: 72 h
Caco-2 [14] = assay: drug sensitivity score (DSS) for viability; higher = more toxic; extreme values may be limits of the assay; conditions: 72 h
Calu-3 [15] = assay: as above; conditions: 72 h
HepG2 [16] = assay: as above; conditions: 72 h
U2OS [17] = assay: as above; conditions: 72 h
Vero E6 [18] = assay: as above; conditions: 72 h

COc1ccc(C[C@H]2NC[C@H](O)[C@H]2OC(C)=O)cc1 [anisomycin]
Conditions | SARS-CoV-2 infection rate, [7] [%] | cell count, [1] [%] | cell viability, Caco-2 [2] [%] | cell viability, Calu-3 [3] [%] | cell viability, HepG2 [4] [%] | cell viability, U2OS [5] [%] | cell viability, Vero E6 [6] [%] | morphology score, [8]
1 nM | – | – | 99.4 | 103 | 96.1 | 103 | 94.1 | –
10 nM | – | – | 87 | 97.9 | 98.5 | 95.6 | 93 | –
0.1 µM | 7 | 103 | – | – | – | – | – | 0.85
100 nM | – | – | 58.5 | 67.4 | 39.4 | 53.4 | 34.1 | –
0.3 µM | 6 | 85 | – | – | – | – | – | 0.65
1 µM | 18 | 64 | – | – | – | – | – | 0.48
1000 nM | – | – | 24.8 | 35.1 | 11.8 | 5.4 | 9.8 | –
3 µM | 14 | 34 | – | – | – | – | – | 0.46
10000 nM | – | – | 26.5 | 29.1 | 3.7 | 0.5 | 0.4 | –

A549-ACE2, 24 h
Conditions | drug-induced phospholipidosis [%]
0.3 µM | 4.72
0.833333 µM | -0.99

Conditions | drug sensitivity score | relative viability EC50 [nM]
Caco-2 [9] | – | 69.1
Caco-2 [14] | 18.9 | –
Calu-3 [10] | – | 117
Calu-3 [15] | 16.1 | –
HepG2 [11] | – | 72.8
HepG2 [16] | 24.6 | –
U2OS [12] | – | 110
U2OS [17] | 22.9 | –
Vero E6 [13] | – | 61.4
Vero E6 [18] | 25.9 | –

CCC(CC)COC(=O)[C@H](C)N[P@](=O)(OC[C@H]1O[C@@](C#N)(c2ccc3c(N)ncnn23)[C@H](O)[C@@H]1O)Oc1ccccc1 [Remdesivir]
Conditions | SARS-CoV-2 infection rate [%] | cell count [%] | cell viability [%] | morphology score
Caco-2 [2], 1 nM | – | – | 103 | –
Caco-2 [2], 10 nM | – | – | 101 | –
Caco-2 [2], 100 nM | – | – | 102 | –
Caco-2 [2], 1000 nM | – | – | 102 | –
Caco-2 [2], 10000 nM | – | – | 69.3 | –
Calu-3 [3], 1 nM | – | – | 90.6 | –
Calu-3 [3], 10 nM | – | – | 103 | –
Calu-3 [3], 100 nM | – | – | 88.7 | –
Calu-3 [3], 1000 nM | – | – | 97 | –
Calu-3 [3], 10000 nM | – | – | 81.1 | –
HepG2 [4], 1 nM | – | – | 101 | –
HepG2 [4], 10 nM | – | – | 95.5 | –
HepG2 [4], 100 nM | – | – | 105 | –
HepG2 [4], 1000 nM | – | – | 70.2 | –
HepG2 [4], 10000 nM | – | – | 33.7 | –
U2OS [5], 1 nM | – | – | 98 | –
U2OS [5], 10 nM | – | – | 100 | –
U2OS [5], 100 nM | – | – | 101 | –
U2OS [5], 1000 nM | – | – | 96.1 | –
U2OS [5], 10000 nM | – | – | 42.6 | –
Vero E6 [6], 1 nM | – | – | 97.2 | –
Vero E6 [6], 10 nM | – | – | 97.6 | –
Vero E6 [6], 100 nM | – | – | 99.7 | –
Vero E6 [6], 1000 nM | – | – | 99.3 | –
Vero E6 [6], 10000 nM | – | – | 109 | –
[1], 0.008 µM | – | 104 | – | –
[1], 0.033 µM | – | 114 | – | –
[1], 0.1 µM | – | 120 | – | –
[1], 0.3 µM | – | 126 | – | –
[1], 1 µM | – | 124 | – | –
[1], 3 µM | – | 116 | – | –
[1], 10 µM | – | 111 | – | –
[1], 30 µM | – | 105 | – | –
[7], 0.008 µM | 95 | – | – | –
[7], 0.033 µM | 83 | – | – | –
[7], 0.1 µM | 18 | – | – | –
[7], 0.3 µM | 11 | – | – | –
[7], 1 µM | 16 | – | – | –
[7], 3 µM | 9 | – | – | –
[7], 10 µM | 2 | – | – | –
[7], 30 µM | 2 | – | – | –
[8], 0.008 µM | – | – | – | 0.17
[8], 0.033 µM | – | – | – | 0.61
[8], 0.1 µM | – | – | – | 0.82
[8], 0.3 µM | – | – | – | 0.95
[8], 1 µM | – | – | – | 0.96
[8], 3 µM | – | – | – | 0.97
[8], 10 µM | – | – | – | 0.93
[8], 30 µM | – | – | – | 0.93

drug-induced phospholipidosis [%], A549-ACE2
Conditions | 0.3 µM | 0.833333 µM | 3.33333 µM | 6.66667 µM | 10 µM | 30 µM
24 h | 1.03 | -4.55 | 5.63 | 18 | 30 | 47.1
48 h | 4.23 | -7.54 | 0.11 | 4.58 | 10.5 | –
72 h | 4.52 | -8.77 | -4.57 | – | – | –

Conditions | drug sensitivity score | relative viability EC50 [nM]
Caco-2 [14] | 1.2 | –
Calu-3 [10] | – | > 10000
Calu-3 [15] | 0.4 | –
HepG2 [11] | – | 1090
HepG2 [16] | 7.5 | –
U2OS [12] | – | 2620
U2OS [17] | 3.7 | –
Vero E6 [13] | – | > 10000
Vero E6 [18] | 0 | –

CN1CCCCC1Cn1cc(C(=O)c2cc([N+](=O)[O-])ccc2I)c2ccccc21 (stereo not given) [AM-1241]
Conditions | SARS-CoV-2 infection rate, [7] [%] | cell count, [1] [%] | cell viability, Caco-2 [2] [%] | cell viability, Calu-3 [3] [%] | cell viability, HepG2 [4] [%] | cell viability, U2OS [5] [%] | cell viability, Vero E6 [6] [%] | morphology score, [8]
1 nM | – | – | 92.7 | 103 | 89.1 | 94 | 95.4 | –
10 nM | – | – | 92.8 | 103 | 101 | 97.6 | 99.2 | –
100 nM | – | – | 100 | 99.3 | 107 | 91.7 | 96.5 | –
0.3 µM | 107 | 104 | – | – | – | – | – | 0.18
1000 nM | – | – | 94.4 | 94.4 | 102 | 98.1 | 97.1 | –
3 µM | 85 | 109 | – | – | – | – | – | 0.36
10 µM | 63 | 118 | – | – | – | – | – | 0.87
10000 nM | – | – | 97.8 | 104 | 102 | 99 | 106 | –
30 µM | 33 | 115 | – | – | – | – | – | 0.66

drug-induced phospholipidosis [%], A549-ACE2
Conditions | 0.3 µM | 0.833333 µM | 3.33333 µM | 6.66667 µM | 10 µM | 30 µM
24 h | -1.12 | 0.49 | 3.57 | 9.5 | 15.9 | 81.8
48 h | -0.88 | -2.35 | 0.06 | 1.85 | 8.12 | 104
72 h | -1.12 | -4.89 | -3.06 | 1.99 | 5.24 | 111

Conditions | drug sensitivity score | relative viability EC50 [nM]
Caco-2 [9] | – | > 10000
Caco-2 [14] | 0 | –
Calu-3 [10] | – | > 10000
Calu-3 [15] | 0 | –
HepG2 [11] | – | > 10000
HepG2 [16] | 0 | –
U2OS [12] | – | > 10000
U2OS [17] | 0 | –
Vero E6 [13] | – | > 10000
Vero E6 [18] | 0 | –

COc1c(OCCCN2CCOCC2)ccc2c1N=C(NC(=O)c1cnc(N)nc1)N1CCN=C21 [copanlisib]
Conditions | SARS-CoV-2 infection rate, [7] [%] | cell count, [1] [%] | cell viability, Caco-2 [2] [%] | cell viability, Calu-3 [3] [%] | cell viability, HepG2 [4] [%] | cell viability, U2OS [5] [%] | cell viability, Vero E6 [6] [%] | morphology score, [8]
1 nM | – | – | 99.2 | 102 | 98.5 | 101 | 98.8 | –
10 nM | – | – | 98.7 | 93.1 | 109 | 96.2 | 105 | –
0.1 µM | 101 | 101 | – | – | – | – | – | 0.23
100 nM | – | – | 94.6 | 95.4 | 101 | 98.2 | 96 | –
0.3 µM | 97 | 100 | – | – | – | – | – | 0.09
1 µM | 90 | 98 | – | – | – | – | – | 0.35
1000 nM | – | – | 86.9 | 73.4 | 71 | 96.9 | 89.8 | –
3 µM | 92 | 83 | – | – | – | – | – | 0.32
10000 nM | – | – | 34.9 | 32.9 | 51.9 | 67.5 | 65.1 | –

drug-induced phospholipidosis [%], A549-ACE2
Conditions | 0.3 µM | 0.833333 µM | 3.33333 µM | 6.66667 µM | 10 µM | 30 µM
24 h | -3.17 | -4.37 | 0.15 | 5.67 | 10.8 | 56.5
48 h | -1.4 | -3.62 | 0.68 | 3.97 | 5.69 | –
72 h | -0.924 | -3.86 | 0.214 | 2.05 | – | –

Conditions | drug sensitivity score | relative viability EC50 [nM]
Caco-2 [9] | – | 1730
Caco-2 [14] | 5.7 | –
Calu-3 [10] | – | 1260
Calu-3 [15] | 6.8 | –
HepG2 [16] | 6 | –
U2OS [17] | 2 | –
Vero E6 [18] | 2.9 | –
